Measurements as given in patent US5298494A, “Monosaccharides having anti-proliferation and anti-inflammatory activity, compositions and uses thereof” (Greenwich Pharmaceuticals Incorporated, priority 1993, dated 1994).
Where “and” joins values, the source holds several entries; their conditions need not be identical. Equal entries are not always repeated. Entries after “also recorded” stand apart in the source; their conditions may differ. Where two headings read alike, the source gives them in different places.

Test system: T lymphocytes (normal mouse spleen cells) stimulated with ConA
Experiment: Mouse Spleen Cell ConA Blastogenesis Assay
Assay type: cell-based, mouse (C57Bl/6)
Details: for inhibition at 0.01 µg/mL / inhibition at 0.1 µg/mL / inhibition at 1 µg/mL / inhibition at 2.5 µg/mL / inhibition at 10 µg/mL / inhibition at 25 µg/mL / inhibition at 100 µg/mL / inhibition at 300 µg/mL / inhibition at 750 µg/mL / inhibition at 0.001 µg/mL: Mus musculus, T-lymphocyte
Excerpt: It is well known that several plant lectins, when cultured in vitro with lymphocytes, stimulate cellular activation and proliferation. Concanavolin, (ConA) selectively stimulates the blastogenic response of T lymphocytes.
Six to 8 week old male C57Bl/6 mice were purchased from Harlan Sprague Dawley (Indianapolis, Ind.).
Spleens were removed and were homogenized to obtain a single cell suspension. Erythrocytes were lysed by hypotonic shock. Upon determination of the viability and concentration of the lymphoid cells, they were adjusted to 4×10^6 cells/ml in culture medium (RPMI-1640) supplemented with 10% fetal bovine serum; 100 ug/ml streptomycin; 100 U/ml penicillin, 0.2M hepes buffer; 5×10^-5 M 2-mercaptoethanol and 2 mM glutamine). seeded into microtiter plate wells at 2×10^5 cells/0.050 ml/well. To these cultures were added various doses of experimental compounds and ConA at a final concentration of 4 or 1 ug/ml. Control cultures consisted of cells, ConA and culture medium containing the vehicle, DMSO only. […] For the testing of the methyl 1,3-O-isopropylidene-6-O-n-heptyl-α-D-fructofuranoside compound indomethacin and NDGA were used as controls. All cultures were run in triplicate.
Solutions of compounds of the invention in DMSO were prepared and dilutions were made in culture medium. Assay concentrations were either: 1, 2.5, 10, 25, 100, 300 and 750 ug/ml or 0.001, 0.01, 0.1, 1, 2.5, 10, 25 and 100 ug/ml.
Cultures were incubated for 3 days at 37° C. in a humidified atmosphere of 5% of CO2 in air. For the last 18 hours of culture, 1 uCi of ^3 H-thymidine was also incubated in each well. The cells were precipitated by a multi-channel harvester. The amount of ^3 H-thymidine incorporated by the cultures, as a measure of cell proliferation, was measured in a liquid scintillation counter. The amount of radioactive incorporation is proportional to the amount of cellular proliferation in individual wells. The students T test was used to determine the significance of the difference between experimental and control values.

[1] = ConA 1 ug/ml, 0.01 ug/ml, read-out: % Change from Control (Table II)
[2] = ConA 1 ug/ml, compound 0.01 ug/ml, read-out: % change from control, ConA blastogenic response
[3] = ConA 1 ug/ml, compound 0.1 ug/ml, read-out: % change from control, ConA blastogenic response
[4] = ConA 1 ug/ml, compound 1 ug/ml, read-out: % change from control, ConA blastogenic response
[5] = ConA 1 ug/ml, compound 2.5 ug/ml, read-out: % change from control, ConA blastogenic response
[6] = ConA 1 ug/ml, compound 10 ug/ml, read-out: % change from control, ConA blastogenic response
[7] = ConA 1 ug/ml, compound 25 ug/ml, read-out: % change from control, ConA blastogenic response
[8] = ConA 1 ug/ml, compound 100 ug/ml, read-out: % change from control, ConA blastogenic response
[9] = ConA 4 ug/ml, 0.01 ug/ml, read-out: % Change from Control (Table II)
[10] = ConA 4 ug/ml, compound 0.01 ug/ml, read-out: % change from control, ConA blastogenic response
[11] = ConA 4 ug/ml, compound 0.1 ug/ml, read-out: % change from control, ConA blastogenic response
[12] = ConA 4 ug/ml, compound 1 ug/ml, read-out: % change from control, ConA blastogenic response
[13] = ConA 4 ug/ml, compound 2.5 ug/ml, read-out: % change from control, ConA blastogenic response
[14] = ConA 4 ug/ml, compound 10 ug/ml, read-out: % change from control, ConA blastogenic response
[15] = ConA 4 ug/ml, compound 25 ug/ml, read-out: % change from control, ConA blastogenic response
[16] = ConA 4 ug/ml, compound 100 ug/ml, read-out: % change from control, ConA blastogenic response
[17] = ConA 1 ug/ml, compound 10 ug/ml
[18] = ConA 1 ug/ml, compound 25 ug/ml
[19] = ConA 1 ug/ml, compound 100 ug/ml
[20] = ConA 1 ug/ml, compound 300 ug/ml
[21] = ConA 1 ug/ml, compound 750 ug/ml
[22] = ConA 4 ug/ml, compound 10 ug/ml
[23] = ConA 4 ug/ml, compound 25 ug/ml
[24] = ConA 4 ug/ml, compound 100 ug/ml
[25] = ConA 4 ug/ml, compound 300 ug/ml
[26] = ConA 4 ug/ml, compound 750 ug/ml
[27] = ConA 1 ug/ml, compound 2.5 ug/ml
[28] = ConA 4 ug/ml, compound 2.5 ug/ml

## CCCCCCCC(=O)OC[C@H]1O[C@@]2(OC)COC(C)(C)O[C@H]2[C@@H]1OC(=O)CCCCCCC [Ij, methyl 1,3-O-isopropylidene-4,6-di-O-octanoyl-α-D-fructofuranoside]
[1]
  inhibition at 0.01 µg/mL: 60%
[2]
  inhibition at 0.01 µg/mL: 100%
[3]
  inhibition at 0.1 µg/mL: 100%
[4]
  inhibition at 1 µg/mL: 100%
[5]
  inhibition at 2.5 µg/mL: 100%
[6]
  inhibition at 10 µg/mL: 100%
[7]
  inhibition at 25 µg/mL: 100%
[8]
  inhibition at 100 µg/mL: 100%
[9]
  inhibition at 0.01 µg/mL: 3%
[10]
  inhibition at 0.01 µg/mL: -42%
[11]
  inhibition at 0.1 µg/mL: 12%
[12]
  inhibition at 1 µg/mL: -9%
[13]
  inhibition at 2.5 µg/mL: 15%
[14]
  inhibition at 10 µg/mL: 43%
[15]
  inhibition at 25 µg/mL: 79%
[16]
  inhibition at 100 µg/mL: 92%

## CCCCCCCC(=O)OC[C@H]1O[C@@]2(OC)COC(C)(C)O[C@H]2[C@@H]1O [Ii, methyl 1,3-O-isopropylidene-6-O-octanoyl-α-D-fructofuranoside]
  effect on ConA T lymphocyte proliferation in words: less potent inhibitor of the mitogen induced T lymphocyte proliferative response; also recorded: significant inhibition observed at all dose levels on the 1 ug/ml ConA cultures
[1]
  inhibition at 0.01 µg/mL: -11%
[2]
  inhibition at 0.01 µg/mL: -7%
[3]
  inhibition at 0.1 µg/mL: -21%
[4]
  inhibition at 1 µg/mL: -52%
[5]
  inhibition at 2.5 µg/mL: -62%
[6]
  inhibition at 10 µg/mL: -13%
[7]
  inhibition at 25 µg/mL: -41%
[8]
  inhibition at 100 µg/mL: 27%
[9]
  inhibition at 0.01 µg/mL: -28%
[10]
  inhibition at 0.01 µg/mL: -37%
[11]
  inhibition at 0.1 µg/mL: -28%
[12]
  inhibition at 1 µg/mL: -17%
[13]
  inhibition at 2.5 µg/mL: -22%
[14]
  inhibition at 10 µg/mL: 1%
[15]
  inhibition at 25 µg/mL: -7%
[16]
  inhibition at 100 µg/mL: 47%

## CC1(C)OC2OC3C(CSCCN4CCCC4)OC(C)(C)OC3C2O1 [IIIp, 1,2:3,5-Di-O-Isopropylidene-6-deoxy-6-thio-2'-(ethyl-N"-pyrrolidyl)-α-D-glucofuranose]
ConA 1 ug/ml, compound 1 ug/ml
  Blastogenic response of normal spleen cells to Con-A: 118,909 × 10^3 cpm
[17]
  % change from control, ConA blastogenic response: -23%
  Blastogenic response of normal spleen cells to Con-A: 55,282 ± 17,762 cpm
[18]
  Blastogenic response of normal spleen cells to Con-A: 101,268 ± 23,586 cpm
[19]
  % change from control, ConA blastogenic response: -11%
  Blastogenic response of normal spleen cells to Con-A: 64,122 ± 7,847 cpm
[20]
  % change from control, ConA blastogenic response: -63%
  Blastogenic response of normal spleen cells to Con-A: 26,948 ± 13,540 cpm
[21]
  % change from control, ConA blastogenic response: -94%
  Blastogenic response of normal spleen cells to Con-A: 3,976 ± 1,922 cpm
ConA 4 ug/ml, compound 1 ug/ml
  % change from control, ConA blastogenic response: -17%
  Blastogenic response of normal spleen cells to Con-A: 81,109 × 10^3 cpm
[22]
  % change from control, ConA blastogenic response: -40%
  Blastogenic response of normal spleen cells to Con-A: 58,381 ± 7,921 cpm
[23]
  % change from control, ConA blastogenic response: -33%
  Blastogenic response of normal spleen cells to Con-A: 65,424 ± 13,480 cpm
[24]
  % change from control, ConA blastogenic response: -55%
  Blastogenic response of normal spleen cells to Con-A: 43,864 ± 9,618 cpm
[25]
  % change from control, ConA blastogenic response: -91%
  Blastogenic response of normal spleen cells to Con-A: 8,310 ± 945 × 10^3 cpm
[26]
  % change from control, ConA blastogenic response: -91%
  Blastogenic response of normal spleen cells to Con-A: 8,402 ± 3,070 cpm
[6]
  inhibition at 10 µg/mL: 23%
[8]
  inhibition at 100 µg/mL: 11%
ConA 1 ug/ml, compound 300 ug/ml, read-out: % change from control, ConA blastogenic response
  inhibition at 300 µg/mL: 63%
ConA 1 ug/ml, compound 750 ug/ml, read-out: % change from control, ConA blastogenic response
  inhibition at 750 µg/mL: 94%
[12]
  inhibition at 1 µg/mL: 17%
[14]
  inhibition at 10 µg/mL: 40%
[15]
  inhibition at 25 µg/mL: 33%
[16]
  inhibition at 100 µg/mL: 55%
ConA 4 ug/ml, compound 300 ug/ml, read-out: % change from control, ConA blastogenic response
  inhibition at 300 µg/mL: 91%
ConA 4 ug/ml, compound 750 ug/ml, read-out: % change from control, ConA blastogenic response
  inhibition at 750 µg/mL: 91%
Concentration not given
  strong antiproliferative effect on ConA blastogenic response: greater than -50 % of control

## Cc1cn([C@H]2C[C@H](N=[N+]=[N-])[C@@H](CO)O2)c(=O)[nH]c1=O [AZT, reference compound]
ConA 1 ug/ml, compound 0.001 ug/ml
  Blastogenic response of normal spleen cells to Con-A: 47.1 ± 4.5 × 10^-3 cpm
ConA 1 ug/ml, compound 0.01 ug/ml
  Blastogenic response of normal spleen cells to Con-A: 36.7 ± 3.1 × 10^-3 cpm
ConA 1 ug/ml, compound 0.1 ug/ml
  Blastogenic response of normal spleen cells to Con-A: 9.1 ± 5.8 × 10^-3 cpm
ConA 1 ug/ml, compound 1 ug/ml
  % change from control, ConA blastogenic response: -99% and -96%
  Blastogenic response of normal spleen cells to Con-A: 1.7 ± 0.1 × 10^-3 cpm
[27]
  % change from control, ConA blastogenic response: -98%
  Blastogenic response of normal spleen cells to Con-A: 0.7 ± 0.3 × 10^-3 cpm
[17]
  % change from control, ConA blastogenic response: -100% and -99%
  Blastogenic response of normal spleen cells to Con-A: 0.5 ± 0.1 × 10^-3 cpm
[18]
  % change from control, ConA blastogenic response: -100% and -99%
  Blastogenic response of normal spleen cells to Con-A: 0.5 ± 0.2 × 10^-3 cpm
[19]
  % change from control, ConA blastogenic response: -100% and -99%
  Blastogenic response of normal spleen cells to Con-A: 0.3 ± 0.0 × 10^-3 cpm
ConA 4 ug/ml, compound 0.001 ug/ml
  Blastogenic response of normal spleen cells to Con-A: 163.7 ± 8.0 × 10^-3 cpm
ConA 4 ug/ml, compound 0.01 ug/ml
  Blastogenic response of normal spleen cells to Con-A: 158.1 × 10^-3 cpm
ConA 4 ug/ml, compound 0.1 ug/ml
  Blastogenic response of normal spleen cells to Con-A: 24.5 ± 3.0 × 10^-3 cpm
ConA 4 ug/ml, compound 1 ug/ml
  % change from control, ConA blastogenic response: -99% and -97%
  Blastogenic response of normal spleen cells to Con-A: 4.0 ± 1.5 × 10^-3 cpm
[28]
  % change from control, ConA blastogenic response: -100% and -99%
  Blastogenic response of normal spleen cells to Con-A: 1.9 ± 0.4 × 10^-3 cpm
[22]
  % change from control, ConA blastogenic response: -100% and -99%
  Blastogenic response of normal spleen cells to Con-A: 1.4 ± 0.4 × 10^-3 cpm
[23]
  Blastogenic response of normal spleen cells to Con-A: 1.3 ± 0.5 × 10^-3 cpm
[24]
  % change from control, ConA blastogenic response: -99% and -100%
  Blastogenic response of normal spleen cells to Con-A: 0.6 ± 0.1 × 10^-3 cpm
[1]
  inhibition at 0.01 µg/mL: 7%
ConA 1 ug/ml, compound 0.001 ug/ml, read-out: % change from control, ConA blastogenic response
  inhibition at 0.001 µg/mL: 18%
[3]
  inhibition at 0.1 µg/mL: 93%
[4]
  inhibition at 1 µg/mL: 96%
[5]
  inhibition at 2.5 µg/mL: 98%
[6]
  inhibition at 10 µg/mL: 99%
[7]
  inhibition at 25 µg/mL: 99%
[8]
  inhibition at 100 µg/mL: 99%
[9]
  inhibition at 0.01 µg/mL: 13%
ConA 4 ug/ml, compound 0.001 ug/ml, read-out: % change from control, ConA blastogenic response
  inhibition at 0.001 µg/mL: -5%
[11]
  inhibition at 0.1 µg/mL: 99%
[12]
  inhibition at 1 µg/mL: 97%
[13]
  inhibition at 2.5 µg/mL: 99%
[14]
  inhibition at 10 µg/mL: 99%
[15]
  inhibition at 25 µg/mL: 99%
[16]
  inhibition at 100 µg/mL: 100%
